Among the data in ChEMBL document CHEMBL4028802, “DILIrank: the largest reference drug list ranked by the risk for developing drug-induced liver injury in humans” (Drug Discov Today, 2016) are DILI_severity_class and DILI_Concern values, retold here.

The species named for series [1] is Homo sapiens. Description: Liver toxicity in human assessed as induction of drug-induced liver injury by measuring severity class index.
For series [2], the species on record is Homo sapiens. Briefly: Liver toxicity in human assessed as induction of drug-induced liver injury by measuring verified drug-induced liver injury concern status.
Wherever DILI severity class is given: key of the grades not given here.

Consider `CCCC1O[C@@H]2C[C@H]3[C@@H]4CCC5=CC(=O)C=C[C@]5(C)[C@H]4[C@@H](O)C[C@]3(C)[C@]2(C(=O)CO)O1` (some centres undefined) [BUDESONIDE], for which the DILI_severity_class in the series filed under Homo sapiens [1] is given as 0. The DILI_Concern entry in the series filed under Homo sapiens [2] is “No-Dili-Concern”.
Taken in the same sequence, the figures for `CCCCNc1cc(C(=O)O)cc(S(N)(=O)=O)c1Oc1ccccc1` [BUMETANIDE] were 3 and “Ambiguous-Dili-Concern”.
For `CC(NC(C)(C)C)C(=O)c1cccc(Cl)c1` (centres undefined) [BUPROPION], in that order: 5 and “Less-Dili-Concern”.
In the case of `O=C1CC2(CCCC2)CC(=O)N1CCCCN1CCN(c2ncccn2)CC1` [BUSPIRONE], the DILI_severity_class in the series filed under Homo sapiens [1] is on record as 3. In addition, the DILI_Concern result in the series listed under Homo sapiens [2] is on record as “Ambiguous-Dili-Concern”.
For `CS(=O)(=O)OCCCCOS(C)(=O)=O` [BUSULFAN], in that order: 8 and “Most-Dili-Concern”.
For `CCC(C)C1(CC)C(=O)NC(=O)NC1=O` (centres undefined) [BUTABARBITAL], in that order: 3 and “Ambiguous-Dili-Concern”.
For `Oc1ccc2c(c1)[C@@]13CCCC[C@@]1(O)[C@@H](C2)N(CC1CCC1)CC3` [BUTORPHANOL], in that order: 0 and “No-Dili-Concern”.
Take `C=CCN1C[C@H](C(=O)N(CCCN(C)C)C(=O)NCC)C[C@@H]2c3cccc4[nH]cc(c34)C[C@H]21` [CABERGOLINE]: in the series filed under Homo sapiens [1], the DILI_severity_class was 0. The DILI_Concern result in the series filed under Homo sapiens [2] was “No-Dili-Concern”.
Regarding `Cn1c(=O)c2c(ncn2C)n(C)c1=O` [CAFFEINE], the DILI_severity_class in the series listed under Homo sapiens [1] came out at 0. In addition, in the series listed under Homo sapiens [2], the DILI_Concern entry is recorded as “No-Dili-Concern”.
As to `CC(C)C[C@H](NC(=O)[C@H](CCCCN)NC(=O)CNC(=O)[C@H](CC(C)C)NC(=O)[C@@H](NC(=O)[C@@H]1CSSC[C@H](N)C(=O)N[C@@H](CO)C(=O)N[C@@H](CC(N)=O)C(=O)N[C@@H](CC(C)C)C(=O)N[C@@H](CO)C(=O)N[C@@H]([C@@H](C)O)C(=O)N1)C(C)C)C(=O)N[C@@H](CO)C(=O)N[C@@H](CCC(N)=O)C(=O)N[C@@H](CCC(=O)O)C(=O)N[C@@H](CC(C)C)C(=O)N[C@@H](Cc1c[nH]cn1)C(=O)N[C@@H](CCCCN)C(=O)N[C@@H](CC(C)C)C(=O)N[C@@H](CCC(N)=O)C(=O)N[C@H](C(=O)N[C@@H](Cc1ccc(O)cc1)C(=O)N1CCC[C@H]1C(=O)N[C@@H](CCCNC(=N)N)C(=O)N[C@H](C(=O)N[C@@H](CC(N)=O)C(=O)N[C@H](C(=O)NCC(=O)N[C@@H](CO)C(=O)NCC(=O)N[C@H](C(=O)N1CCC[C@H]1C(N)=O)[C@@H](C)O)[C@@H](C)O)[C@@H](C)O)[C@@H](C)O` [CALCITONIN SALMON], the DILI_severity_class in the series listed under Homo sapiens [1] was found to be 0. Moreover, in the series listed under Homo sapiens [2], the DILI_Concern result is “No-Dili-Concern”.
With `C=C1/C(=C\C=C2/CCC[C@]3(C)[C@@H]([C@H](C)CCCC(C)(C)O)CC[C@@H]23)C[C@@H](O)C[C@@H]1O` [CALCITRIOL], the DILI_severity_class in the series listed under Homo sapiens [1] is 0. Moreover, the DILI_Concern entry in the series listed under Homo sapiens [2] was “No-Dili-Concern”.
For `CC(=O)[O-].CC(=O)[O-].[Ca+2]` [CALCIUM ACETATE], in that order: 0 and “No-Dili-Concern”.
Taken in the same sequence, the figures for `CCCCCOC(=O)Nc1nc(=O)n([C@@H]2O[C@H](C)[C@@H](O)[C@H]2O)cc1F` [CAPECITABINE] were 2 and “Ambiguous-Dili-Concern”.
For `C[C@H](CS)C(=O)N1CCC[C@H]1C(=O)O` [CAPTOPRIL], in that order: 7 and “Less-Dili-Concern”.
Consider `NC(=O)N1c2ccccc2C=Cc2ccccc21` [CARBAMAZEPINE], for which the DILI_severity_class in the series filed under Homo sapiens [1] is 7. Also, the DILI_Concern result in the series filed under Homo sapiens [2] is recorded as “Most-Dili-Concern”.
For `CC1(C)S[C@@H]2[C@H](NC(=O)C(C(=O)O)c3ccccc3)C(=O)N2[C@H]1C(=O)O` (some centres undefined) [CARBENICILLIN], in the series listed under Homo sapiens [1], the DILI_severity_class is on record as 3. In the series listed under Homo sapiens [2], the DILI_Concern result was “Less-Dili-Concern”.
For `C[C@@](Cc1ccc(O)c(O)c1)(NN)C(=O)O` [CARBIDOPA ANHYDROUS], in that order: 3 and “Ambiguous-Dili-Concern”.
`CN(C)CCOC(c1ccc(Cl)cc1)c1ccccn1` (centres undefined) [CARBINOXAMINE]: in the series listed under Homo sapiens [1], the DILI_severity_class turned out to be 0. Also, the DILI_Concern entry in the series filed under Homo sapiens [2] is listed as “No-Dili-Concern”.
Consider `CCCCC[C@](C)(O)/C=C/[C@@H]1[C@@H](C/C=C\CCCC(=O)O)[C@@H](O)C[C@H]1O.NC(CO)(CO)CO` [CARBOPROST TROMETHAMINE], for which the DILI_severity_class in the series listed under Homo sapiens [1] is listed as 0. Also, in the series listed under Homo sapiens [2], the DILI_Concern result was “No-Dili-Concern”.
For `CCCC(C)(COC(N)=O)COC(=O)NC(C)C` (centres undefined) [CARISOPRODOL], in that order: 0 and “No-Dili-Concern”.
For `COc1ccccc1OCCNCC(O)COc1cccc2[nH]c3ccccc3c12` (centres undefined) [CARVEDILOL], in that order: 3 and “Less-Dili-Concern”.
For `CC[C@H](C)C[C@H](C)CCCCCCCCC(=O)N[C@H]1C[C@@H](O)[C@@H](NCCN)NC(=O)[C@@H]2[C@@H](O)CCN2C(=O)[C@H]([C@H](O)CCN)NC(=O)[C@H]([C@H](O)[C@@H](O)c2ccc(O)cc2)NC(=O)[C@@H]2C[C@@H](O)CN2C(=O)[C@H]([C@@H](C)O)NC1=O` [CASPOFUNGIN], in that order: 7 and “Ambiguous-Dili-Concern”.
In the case of `N[C@@H](C(=O)N[C@@H]1C(=O)N2C(C(=O)O)=C(Cl)CS[C@H]12)c1ccccc1` [CEFACLOR ANHYDROUS], in the series listed under Homo sapiens [1], the DILI_severity_class is 3. Moreover, in the series listed under Homo sapiens [2], the DILI_Concern entry is given as “Less-Dili-Concern”.
Take `CC1=C(C(=O)O)N2C(=O)[C@@H](NC(=O)[C@H](N)c3ccc(O)cc3)[C@H]2SC1` [CEFADROXIL]: the DILI_severity_class in the series filed under Homo sapiens [1] came out at 7. In the series filed under Homo sapiens [2], the DILI_Concern result is on record as “Less-Dili-Concern”.
For `Cc1nnc(SCC2=C(C(=O)O)N3C(=O)[C@@H](NC(=O)Cn4cnnn4)[C@H]3SC2)s1` [CEFAZOLIN], in that order: 3 and “Less-Dili-Concern”.
Taken in the same sequence, the figures for `CO/N=C(\C(=O)N[C@@H]1C(=O)N2C(C(=O)O)=C(/C=C\c3scnc3C)CS[C@H]12)c1csc(N)n1` [CEFDITOREN] were 2 and “Ambiguous-Dili-Concern”.
For `C=CC1=C(C(=O)O)N2C(=O)[C@@H](NC(=O)/C(=N\OCC(=O)O)c3csc(N)n3)[C@H]2SC1` [CEFIXIME], in that order: 4 and “Ambiguous-Dili-Concern”.
As to `CCN1CCN(C(=O)N[C@@H](C(=O)N[C@@H]2C(=O)N3C(C(=O)O)=C(CSc4nnnn4C)CS[C@H]23)c2ccc(O)cc2)C(=O)C1=O` [CEFOPERAZONE], the DILI_severity_class in the series listed under Homo sapiens [1] was determined as 3. Also, in the series filed under Homo sapiens [2], the DILI_Concern entry was “Less-Dili-Concern”.
For `CO/N=C(\C(=O)N[C@@H]1C(=O)N2C(C(=O)O)=C(COC(C)=O)CS[C@H]12)c1csc(N)n1` [CEFOTAXIME], in that order: 5 and “Less-Dili-Concern”.
As for `CO[C@@]1(NC(=O)C2SC(=C(C(N)=O)C(=O)O)S2)C(=O)N2C(C(=O)O)=C(CSc3nnnn3C)CS[C@@H]21` (some centres undefined) [CEFOTETAN], the DILI_severity_class in the series filed under Homo sapiens [1] is reported as 3. The DILI_Concern entry in the series listed under Homo sapiens [2] was “Ambiguous-Dili-Concern”.
For the compound `CO[C@@]1(NC(=O)Cc2cccs2)C(=O)N2C(C(=O)O)=C(COC(N)=O)CS[C@@H]21` [CEFOXITIN], in the series filed under Homo sapiens [1], the DILI_severity_class was 3. The DILI_Concern result in the series filed under Homo sapiens [2] was “Ambiguous-Dili-Concern”.
Taken in the same sequence, the figures for `COCC1=C(C(=O)O)N2C(=O)[C@@H](NC(=O)/C(=N\OC)c3csc(N)n3)[C@H]2SC1` [CEFPODOXIME] were 3 and “Ambiguous-Dili-Concern”.
Taken in the same sequence, the figures for `CC=CC1=C(C(=O)O)N2C(=O)[C@@H](NC(=O)[C@H](N)c3ccc(O)cc3)[C@H]2SC1` [CEFPROZIL] were 4 and “Less-Dili-Concern”.
For `CC(C)(O/N=C(\C(=O)N[C@@H]1C(=O)N2C(C(=O)[O-])=C(C[n+]3ccccc3)CS[C@H]12)c1csc(N)n1)C(=O)O` [CEFTAZIDIME], in that order: 3 and “Less-Dili-Concern”.
Consider `Nc1nc(/C(=C/CC(=O)O)C(=O)N[C@@H]2C(=O)N3C(C(=O)O)=CCS[C@H]23)cs1` [CEFTIBUTEN], for which, in the series listed under Homo sapiens [1], the DILI_severity_class amounted to 3. For the same compound, in the series listed under Homo sapiens [2], the DILI_Concern result is given as “Ambiguous-Dili-Concern”.
For `CO/N=C(\C(=O)N[C@@H]1C(=O)N2C(C(=O)O)=CCS[C@H]12)c1csc(N)n1` [CEFTIZOXIME], in that order: 4 and “Ambiguous-Dili-Concern”.
For the compound `CO/N=C(\C(=O)N[C@@H]1C(=O)N2C(C(=O)O)=C(CSc3nc(=O)c(=O)[nH]n3C)CS[C@H]12)c1csc(N)n1` [CEFTRIAXONE], the DILI_severity_class in the series listed under Homo sapiens [1] turned out to be 4. For the same compound, in the series filed under Homo sapiens [2], the DILI_Concern entry was “Less-Dili-Concern”.
Taken in the same sequence, the figures for `CO/N=C(\C(=O)N[C@@H]1C(=O)N2C(C(=O)O)=C(COC(N)=O)CS[C@H]12)c1ccco1` [CEFUROXIME] were 5 and “Less-Dili-Concern”.
Taken in the same sequence, the figures for `Cc1ccc(-c2cc(C(F)(F)F)nn2-c2ccc(S(N)(=O)=O)cc2)cc1` [CELECOXIB] were 3 and “Less-Dili-Concern”.
As to `CC1=C(C(=O)O)N2C(=O)[C@@H](NC(=O)[C@H](N)c3ccccc3)[C@H]2SC1` [CEPHALEXIN ANHYDROUS], the DILI_severity_class in the series filed under Homo sapiens [1] was determined as 4. Further, the DILI_Concern result in the series filed under Homo sapiens [2] is given as “Less-Dili-Concern”.
Taken in the same sequence, the figures for `CC1=C(C(=O)O)N2C(=O)[C@@H](NC(=O)[C@H](N)C3=CCC=CC3)[C@H]2SC1` [CEPHRADINE] were 4 and “Ambiguous-Dili-Concern”.
`O=C(O)COCCN1CCN(C(c2ccccc2)c2ccc(Cl)cc2)CC1` (centres undefined) [CETIRIZINE]: in the series listed under Homo sapiens [1], the DILI_severity_class is reported as 3. Besides, the DILI_Concern result in the series listed under Homo sapiens [2] was “Less-Dili-Concern”.
